“Also recorded” adds a separate entry of the source.
What was measured:
Format in all cases: cell-based
[1] = biological target: T1, BRD4 (Homo sapiens, UniProt O60885); experiment: CURE-PRO-mediated BRD4 degradation in MCF7 cells, Western blot; parameters: endogenous in cells; settings: 1:1 with VHL ligand 8305, MCF7, 24 h, 100 nM-10 μM
Experimental: (§1) Namalwa, Ramosm HeLa, MCF7, or HT29 HCT116 cells (2.5-3×10^6) were treated for 24 hours with the indicated compounds solubilized in DMSO. The cells were washed in ice-cold PBS and were then lysed in RIPA lysis buffer (150 mM NaCl, 5 mM EDTA, 1% NP-40, 0.5% sodium deoxycholate, 0.1% SDS, 50 mM Tris, pH 8.0.) with Roche protease inhibitor complete cocktail and phosphatase inhibitors (10 mM sodium fluoride, 10 mM sodium pyrophosphate, 1 mM sodium orthovanadate and 20 mM β-glycerophosphate). The total protein concentrations were determined by Bradford Protein Assay (Pierce) and 10-20 μg of protein was loaded onto 4-15% Tris-Glycine gradient gels (Biorad). After standard gel electrophoresis, the separated proteins were transferred to PVDF membrane by wet transfer. The immunoblots were then blocked for 1 hour in 5% skim milk in TBST or 5% BSA in TBST, according to manufacturer's instructions, before an overnight incubation at 4° C. with indicated antibodies and membranes. Membranes were then incubated with the appropriate horseradish peroxidase-conjugated secondary antibodies (1:5,000 dilution) for 1 h at room temperature and the bands were visualized using the Clarity Max Western ECL Substrate (Biorad) and the ChemiDoc Imaging System (Biorad). Signal was detected with ECL Western Blotting Substrate (Pierce) and X-ray film processed with a Konica SRX-101 X-ray film processor or captured by Bio-Rad's Chemidoc Imaging system.
MCF7 cells (3×10^6) were treated for 24 h with the compounds solubilized in DMSO. Compounds were added at 100 nM-10 μM. Standardized protein samples were electrophoresed and imaged as described in the Immunoblotting section above. FIG. 69 depicts the CURE-PRO-mediated BRD4 degradation for the BRD-E9 monomer and VHL ligands 8305 combined in a 1:1 ratio, and FIG. 70 depicts the CURE-PRO-mediated BRD4 degradation for the BRD-E20 monomer and 8305.
MCF7 cells (3×10^6) were treated for 24 h with the compounds solubilized in DMSO. Compounds were added at 1 μM-10 μM. Standardized protein samples were electrophoresed and imaged as described in the Immunoblotting section above. FIG. 71 depicts the CURE-PRO-mediated BRD4 degradation for the BRD-E50 monomer and VHL ligands 8305 and 8304 combined in a 1:1 ratio.

[2] = biological target: T1, BRD4; experiment: Summary of BRD4 degradation by CURE-PRO pairs, estimated from Western Blot or WES; parameters: endogenous in cells; settings: for Degradation of BRD4, combination with CRBN ligand 8047: Table 1, aryl-boronic acid BRD4 ligand + 8047
Summary of the method: (§2)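 Degradation read-out from immunoblot with ECL, or WES capillary electrophoresis with HRP detection, of RIPA lysates. Cells (Namalwa, Ramos, HeLa, MCF7, HT29 or HCT116) were exposed to DMSO-solubilized compounds for 24 h; a check mark marks 30% to 70% or higher degradation.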

[3] = system: caspase 3/7; experiment: Caspase-Glo 3/7 assay, Namalwa cells; settings: 1:1 with CRBN ligand 8047, Namalwa, 24 h
Experimental: Caspase-glo® assay (Promega) was conducted following the manufacturer's recommendations. Cells were seeded at a density of 5000 cells/well in a white 96 well plates (Corning, #3917) in a total volume of 100 μl with respective monomers, combinations of BRD ligands together with E3 ligase ligands or vehicle control treatment. After a 24 h incubation, 100 μl of the […] substrate was added per well and luminescence was read on a Spectramax M5 (Molecular Devices).
Namalwa cells (5×10^4) were treated for 24 hours with the compounds solubilized in DMSO. FIG. 57 is a bar graph depiction of fold increase of apoptosis assessed via caspase 3/7 activity using the Caspase-Glo assay (Promega) described above.
Molm-13 (FIG. 76A) or Namalwa (FIG. 76B) cells (5×10^4) were treated for 24 hours with the compounds solubilized in DMSO in white 96 well plates (10 nM-10 μM solubilized in DMSO). FIG. 76 is a bar graph depiction of fold increase of apoptosis assessed via caspase 3/7 activity using the Caspase-Glo assay (Promega) described above.

[4] = biological target: T1, BRD4; experiment: CURE-PRO-mediated BRD4 degradation in HeLa cells, Western blot; parameters: endogenous in cells; host or cells: HeLa; settings: 24 h
Summary of the method: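 HeLa cells (2.5×10^6) treated 24 h with DMSO-solubilized compounds, degrader pairs combined 1:1, at 1 nM-1 μM, 1-10 μM, 10 μM or 10 and 100 μM each depending on series. RIPA lysates (10-20 μg protein) run on SDS-PAGE and immunoblotted for BRD4 with ECL detection.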

[5] = biological target: T1, BRD4; experiment: CURE-PRO-mediated BRD4 degradation in HeLa cells, WES capillary electrophoresis (ProteinSimple); parameters: endogenous in cells; host or cells: HeLa
Experimental: All cell lines were purchased from ATCC or DSMZ and grown at 37° C. with 5% CO2. Human HeLa cells were cultured in complete growth medium (Dulbecco's modified Eagle's medium (DMEM) supplemented with 10% FBS); MCF7 cells were cultured in complete growth medium (Dulbecco's modified Eagle's medium (DMEM) supplemented with 10% FBS and 0.01 mg/ml human recombinant insulin (Sigma Aldrich); Namalwa and Ramos cells were cultured in complete growth medium (RPMI 1640 medium supplemented with 10% FBS); HCT116 and HT29 cells were cultured in complete growth medium (McCoy's 5a Medium supplemented with 10% FBS). For cellular degradation of BRD4 studies cells were seeded in a 12-well plate at 70-80% confluency, allowed to attach overnight, and incubated with the indicated compounds for the indicated time. When indicated, a 15-minute pretreatment with 10 μM pomalidomide, 10 μM VHL298, 10 μM Nutlin3a, 1 μM MG-132 or 1 μM Carfilzomib was performed before the addition of CURE-PROs. For washout studies, after CURE-PRO treatment, media was aspirated and incubated with complete medium for the indicated time before lysis.
(§3) WES Simple analysis was performed on WES system (ProteinSimple-Biotechne) according to the manufacturer's instructions. Total protein concentrations of cell lysates were determined by the Pierce BCA kit (Thermo Fisher). 3 μL of 0.3 μg/μL of the protein lysate was loaded onto a 12- to 230-kDa WES assay plate (ProteinSimple) where 300 nL sample was withdrawn through a capillary, subjected to electrophoretic separation of proteins by size, and followed by the simultaneous, HRP-based detection of proteins using the Anti-Rabbit Detection Module (Proteinsimple: #DM-001). The electropherograms were checked then the automatic peak detection was manually corrected if it was required.
HeLa cells (2.5×10^6) were treated for 4-24 hours with the compounds solubilized in DMSO. After 4 hours, indicated points were washed and cells were left in full growth media. Compounds were added at 10 μM each. Standardized protein samples were electrophoresed and imaged as described in the WES ProteinSimple section above. FIGS. 44 and 45 depict the time-dependence of CURE-PRO-mediated BRD4 degradation with the BRD-E52 ligand (FIG. 44) and BRD-E72 ligand (FIG. 45), both JQ1 derivatives comprising of boronic acid linkers, and the CRBN binding ligands (8046, 8047, and 8066), pomalidomide derivatives comprising diol linkers.
HeLa cells (2.5×10^6) were treated for 24 hours with the compounds solubilized in DMSO. Compounds were added at 100 nM-10 μM each. Standardized protein samples were electrophoresed and imaged as described in the WES ProteinSimple section above. FIG. 46 depicts the concentration-dependence of CURE-PRO-mediated BRD4 degradation and the requirement for monomer dimerization.

[6] = biological target: T2, c-MYC (Homo sapiens, UniProt P01106); experiment: Summary of C-MYC degradation by CURE-PRO pairs, estimated from Western Blot or WES; parameters: endogenous in cells; host or cells: HT29; settings: for Degradation of C-MYC, combination with MDM2 ligand 8310: Table 11, aromatic 1,2-diol MYC ligand + 8310; for Degradation of C-MYC, combination with MDM2 ligand 8312: Table 11, aromatic 1,2-diol MYC ligand + 8312
Summary of the method: as §2

[7] = biological target: T2, c-MYC; experiment: CURE-PRO-mediated c-MYC degradation in HCT1116 cells, Western blot or WES; parameters: HT29 cells (2.5×10^6) were treated for 24 h with the compounds solubilized in DMSO; endogenous in cells; host or cells: HT29; settings: 1:1 with MDM2 ligand 8310, HCT1116, 24 h, 10 nM-10 μM each
[8] = biological target: T2, c-MYC; experiment: as above; parameters: endogenous in cells; host or cells: HT29; settings: 1:1 with MDM2 ligand 8312, HCT1116, 24 h, 10 nM-10 μM each
Experimental: as §1, §3
HCT1116 cells (2.5×10^6) were treated for 24 h with the compounds solubilized in DMSO. Compounds were added at 10 nM-10 μM each. Standardized protein samples were electrophoresed and imaged as described in the immunoblotting or WES (Proteinsimple) sections above. c-MYC monomers, MYC-N20 (FIG. 100, a 10074-G5 derivative comprising diol linkers), and MYC-N10 (FIG. 101), MYC-N6 (FIG. 102), and MYC-N9 (FIG. 103) (10058-F4 derivatives comprising diol linkers), and MDM2 ligands, 8310 and 8312 (Nutlin 3a derivatives comprising boronic acid linkers) were combined in a 1:1 ratio.
HCT1116 cells (2.5×10^6) were treated for 24 h with the compounds solubilized in DMSO. Compounds were added at 1 μM-10 μM each.

T2 sequence (P01106 whole entry): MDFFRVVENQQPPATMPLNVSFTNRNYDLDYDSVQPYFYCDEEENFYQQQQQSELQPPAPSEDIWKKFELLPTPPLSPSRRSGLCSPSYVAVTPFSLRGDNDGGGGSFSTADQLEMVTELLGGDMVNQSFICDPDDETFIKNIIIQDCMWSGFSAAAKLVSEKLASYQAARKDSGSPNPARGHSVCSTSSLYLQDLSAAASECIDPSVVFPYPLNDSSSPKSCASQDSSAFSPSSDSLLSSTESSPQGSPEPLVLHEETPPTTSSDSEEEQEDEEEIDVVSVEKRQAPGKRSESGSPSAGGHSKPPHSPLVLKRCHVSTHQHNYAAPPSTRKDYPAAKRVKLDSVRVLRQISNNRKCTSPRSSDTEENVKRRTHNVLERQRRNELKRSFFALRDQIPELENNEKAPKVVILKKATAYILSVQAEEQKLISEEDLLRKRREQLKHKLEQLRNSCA

Row | Structure (SMILES) | Degradation of BRD4, combination with CRBN ligand 8047 [2] | Degradation of C-MYC, combination with MDM2 ligand 8310 [6] | c-MYC degradation [7] | c-MYC degradation [8] | Degradation of C-MYC, combination with MDM2 ligand 8312 [6] | further results
1 | COc1ccc2c(c1)C(c1ccc(Cl)cc1)=N[C@@H](CC(=O)NCc1ccc(B(O)O)cc1)c1nnc(C)n1-2 [BRD-E9, (4-((2-((4S)-6-(4-chlorophenyl)-8-methoxy-1-methyl-4H-benzo[f][1,2,4]triazolo[4,3-a][1,4]diazepin-4-yl)acetamido)methyl)phenyl)boronic acid] | √ (A black check mark indicates efficacy of 30% to 70% or higher protein degradation) | – | – | – | – | BRD4 degradation [1]: there is degradation of BRD4; Degradation of BRD4, combination with VHL ligand 8305 ([2]; Table 3, aryl-boronic acid BRD4 ligand + 8305): √ (A black check mark indicates efficacy of 30% to 70% or higher protein degradation)
2 | CCNC(=O)C[C@@H]1N=C(c2ccc(Sc3cccc(B(O)O)c3)cc2)c2cc(OC)ccc2-n2c(C)nnc21 [BRD-E52, (3-((4-((4S)-4-(2-(ethylamino)-2-oxoethyl)-8-methoxy-1-methyl-4H-benzo[f][1,2,4]triazolo[4,3-a][1,4]diazepin-6-yl)phenyl)thio)phenyl)boronic acid] | √ (A black check mark indicates efficacy of 30% to 70% or higher protein degradation) | – | – | – | – | caspase 3/7 activation [3]: demonstrates activation of caspase 3/7; also recorded: marked caspase activation; Degradation of BRD4, combination with CRBN ligand 8066 ([2]; Table 1, aryl-boronic acid BRD4 ligand + 8066): √ (A black check mark indicates efficacy of 30% to 70% or higher protein degradation); BRD4 degradation after pomalidomide preincubation ([4]; 1:1 with 8047, 10 μM, pomalidomide preincubated 15 min at equimolar concentration): inhibition of CURE-PRO-mediated BRD4 degradation; BRD4 degradation ([4]; BRD ligand with pomalidomide (no 8047), HeLa, 10 μM): failed to induce BRD4 degradation; BRD4 degradation ([4]; co-treated 1:1 with CRBN ligand 8047, HeLa, 10 μM each): causes degradation of BRD4; also recorded: CURE-PRO-mediated degradation of BRD4; sustained BRD4 degradation after drugs are washed out ([5]; co-dosed with 8047, 10 μM each, washed after 4 h): up to 8 h; BRD4 degradation, time course ([5]; co-dosed with CRBN ligand 8047, HeLa, 10 μM each, 4-24 h): marked BRD4 degradation after 4 h; concentration-dependent BRD4 degradation ([5]; co-dosed with CRBN ligand 8047, HeLa, 24 h, 100 nM-10 μM each): marked BRD4 degradation; concentration from which BRD4 protein expression decreases ([5]; with CRBN ligand 8047, HeLa, 24 h, 100 nM-10 μM each): ≥ 300 nM
3 | CCc1ccc(/C=C2\SC(=O)N(CCCc3cccc(O)c3O)C2=O)cc1 [MYC-N6] | – | √ (A black check mark indicates efficacy of 30% to 70% or higher protein degradation) | caused degradation of c-MYC protein; also recorded: Degradation was noted | – | – | –
4 | CCc1ccc(/C=C2\SC(=O)N(CCOCCNC(=O)c3cccc(O)c3O)C2=O)cc1 [MYC-N10] | – | – | caused degradation of c-MYC at higher concentrations; also recorded: Degradation was noted | caused degradation of c-MYC at higher concentrations; also recorded: Degradation was noted | √ (A black check mark indicates efficacy of 30% to 70% or higher protein degradation) | –
5 | O=C(NCCNC(=O)c1cccc(O)c1O)c1ccc(Nc2ccc([N+](=O)[O-])c3nonc23)cc1 [MYC-N20] | – | √ (A black check mark indicates efficacy of 30% to 70% or higher protein degradation) | caused degradation of c-MYC protein | negligible effects | √ (A black check mark indicates efficacy of 30% to 70% or higher protein degradation) | –
